Measurements from PubChem BioAssay AID1963959 (Molecular Pharmacology Branch, DTP, NCI, 2024).

Tested on: T-47D spheroids with HUVEC/MSC, viability
Assay: Anticancer human tumor T-47D cell line growth inhibition [PI3K];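 also: spheroids exposed to agents for seven days before reading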;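 as to viability, T/C: percent of DMSO vehicle control luminescence so 100% = untreated growth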
Settings: for IC50: curve of first compound; for viability, T/C: stronger effect = lower value
Source text: Combinatorial screen of targeted agents with the PI3K inhibitors inavolisib, alpelisib, duvelisib, and copanlisib in multi-cell type tumor spheroids
A high-throughput screen of multi-cell type tumor spheroids was designed to identify active combinations of targeted small molecules and PI3K pathway inhibitors. Complex spheroids include a stromal component modeled by human endothelial cells (HUVEC) and fibroblasts modeled by human mesenchymal stem cells (MSCs). The concentration ranges selected for each drug and investigational agent were based upon clinically achievable concentrations if the clinical Cmax of the agent was known.
Compounds. The drugs and investigational agents: inavolisib (NSC800729), alpelisib (NSC765974), duvelisib (NSC772469), copanlisib (NSC816437), ipatasertib (NSC767898), afuresertib (NSC778305), talazoparib (NSC767125), sapanisertib (NSC764658), selumetinib (NSC741078), tovorafenib (DAY101, NSC766906), vemurafenib (NSC761431), ravoxertinib (NSC781343), sotorasib (NSC818433), MRTX1133 (NSC 836407), abemaciclib (NSC 768073), palbociclib (NSC758247), venetoclax (NSC 766270), SY5609 (NSC837396), enzalutamide (NSC755605), and darolutamide (NSC825331), were obtained from the National Cancer Institute (NCI) Developmental Therapeutics Program Chemical Repository. The FDA-approved anticancer drug set is available from the NCI Developmental Therapeutics Program. […] The stock solutions were prepared in dimethyl sulfoxide (DMSO, Sigma-Aldrich, St. Louis, MO, cat. D2650) at 800-fold the tested concentration and stored at -70 degrees C prior to their use. All drugs and investigational agents were tested over a range starting from a high concentration at or near the clinical Cmax and decreasing in half-log increments. If the clinical Cmax for an agent had not been determined, the highest concentration tested was 10 microM.
Cell Culture. All cells were maintained in an incubator at 37 degrees C and 5% CO2 with 95% humidity. The PDC lines were cultured according to standard operating procedures established by the NCI PDMR (https://pdmr.cancer.gov/sops/default.htm). All PDCs were thawed and cultured in Matrigel-coated flasks prepared with a working solution of 1X Ham's F-12 nutrient mix, without supplementation (Invitrogen, Waltham, MA, cat. 11765054), 100 U/mL penicillin-streptomycin (Invitrogen, cat. 15140122), and 2.5% Matrigel (Corning Inc., Corning, NY, cat. 354248) for the first three passages. The 354836-022-R-J1-PDC, 475296-252-R-J1-PDC, and 997726-040-R-J2-PDC lines were cultured in 6A media, which includes advanced DMEM/F-12 (Thermo Fisher Scientific, cat. 12634028), 10 mM HEPES (Thermo Fisher Scientific, cat. 15630080), 1X GlutaMAX supplement (Thermo Fisher Scientific, cat. 35050061), 0.1 mg/mL primocin (InvivoGen, San Diego, CA, cat. ant-pm-2), 10% defined fetal bovine serum, heat inactivated (HyClone Laboratories Inc., Logan, UT, cat. SH30070.03HI), 50% L-WRN conditioned media (ATCC, cat. CRL-3276), 1.25 mM N-Acetyl-L-cysteine (Sigma-Aldrich, cat. A9165), 10 mM nicotinamide (Sigma-Aldrich, cat. N0636), 1X B-27 supplement (Thermo Fisher Scientific, cat. 17504044), 1X N-2 supplement (Thermo Fisher Scientific, cat. 17502048), and 10 microM Y-27632 dihydrochloride (Tocris Bioscience, Bristol, United Kingdom, cat. 1254). The 624824-186-R-J2-PDC line was cultured in 6C/Colon 1B media, which includes all 6A media components plus 50 ng/mL human EGF recombinant protein (Thermo Fisher Scientific, cat. PHG0311). […]

Cn1cnc2c(F)c(Nc3ccc(Br)cc3Cl)c(C(=O)NOCCO)cc21 + Cc1nc(NC(=O)N2CCCC2C(N)=O)sc1-c1ccnc(C(C)(C)C(F)(F)F)c1
IC50 (second compound 0.0316 µM): > 3 µM
IC50 (second compound 0.1 µM): > 3 µM
IC50 (second compound 0.316 µM): > 3 µM
IC50 (second compound 1 µM): > 3 µM
IC50 (second compound 3.16 µM): > 3 µM
IC50 (second compound 10 µM): < 0.00949 µM
viability, T/C (second compound 0.0316 µM, first compound 0.00949 µM): 118%
viability, T/C (second compound 0.0316 µM, first compound 0.03 µM): 93.1%
viability, T/C (second compound 0.0316 µM, first compound 0.0949 µM): 92.6%
viability, T/C (second compound 0.0316 µM, first compound 0.3 µM): 85.5%
viability, T/C (second compound 0.0316 µM, first compound 0.949 µM): 93.1%
viability, T/C (second compound 0.0316 µM, first compound 3 µM): 105%
viability, T/C (second compound 0.1 µM, first compound 0.00949 µM): 94.9%
viability, T/C (second compound 0.1 µM, first compound 0.03 µM): 96.7%
viability, T/C (second compound 0.1 µM, first compound 0.0949 µM): 85.7%
viability, T/C (second compound 0.1 µM, first compound 0.3 µM): 96.1%
viability, T/C (second compound 0.1 µM, first compound 0.949 µM): 84.9%
viability, T/C (second compound 0.1 µM, first compound 3 µM): 92.3%
viability, T/C (second compound 0.316 µM, first compound 0.00949 µM): 97.4%
viability, T/C (second compound 0.316 µM, first compound 0.03 µM): 102%
viability, T/C (second compound 0.316 µM, first compound 0.0949 µM): 92.6%
viability, T/C (second compound 0.316 µM, first compound 0.3 µM): 91.2%
viability, T/C (second compound 0.316 µM, first compound 0.949 µM): 95.5%
viability, T/C (second compound 0.316 µM, first compound 3 µM): 92.3%
viability, T/C (second compound 1 µM, first compound 0.00949 µM): 88.2%
viability, T/C (second compound 1 µM, first compound 0.03 µM): 81.3%
viability, T/C (second compound 1 µM, first compound 0.0949 µM): 96.2%
viability, T/C (second compound 1 µM, first compound 0.3 µM): 93.4%
viability, T/C (second compound 1 µM, first compound 0.949 µM): 85.8%
viability, T/C (second compound 1 µM, first compound 3 µM): 96%
viability, T/C (second compound 3.16 µM, first compound 0.00949 µM): 77%
viability, T/C (second compound 3.16 µM, first compound 0.03 µM): 67.8%
viability, T/C (second compound 3.16 µM, first compound 0.0949 µM): 65.4%
viability, T/C (second compound 3.16 µM, first compound 0.3 µM): 65.5%
viability, T/C (second compound 3.16 µM, first compound 0.949 µM): 66.8%
viability, T/C (second compound 3.16 µM, first compound 3 µM): 72.2%
viability, T/C (second compound 10 µM, first compound 0.00949 µM): 36.7%
viability, T/C (second compound 10 µM, first compound 0.03 µM): 38.9%
viability, T/C (second compound 10 µM, first compound 0.0949 µM): 41.8%
viability, T/C (second compound 10 µM, first compound 0.3 µM): 37.7%
viability, T/C (second compound 10 µM, first compound 0.949 µM): 39.6%
viability, T/C (second compound 10 µM, first compound 3 µM): 36.6%
